# Experimental data: patent EP4631501A1, “COMBINATIONS OF A CALCIUM HOMEOSTASIS DISRUPTOR WITH A DEATH RECEPTOR 5 AGONIST FOR TREATING CANCER” (Stichting Het Nederlands Kanker Instituut- Antoni van …, priority 2024, dated 2025)
# Like-named read-outs stand apart in the source and are kept apart here.
# Tests used:
# A549 cells = assay: Colony formation assay in SLC25A23 shRNA knock-down A549 cells treated with senescence inducers; format: cell-based; conditions: three independent shRNAs targeting SLC25A23
# DR5 = assay: Western blot of DR5 induction in A549 cells treated with salinomycin and NAC; format: cell-based; conditions: salinomycin plus NAC
# Source text: (Fig. 3A). This notion was also supported by the western blot analysis. We observed that an upregulation of death receptor 5 (DR5), cleavage of caspase 3 and 8 (cl-CASP8 and 3), indicates extrinsic apoptosis activation. […] In Figure 3B, we noticed the upregulation of cJUn and DR5 by salinomycin treatment. This has been denoted by the past studies showing salinomycin could modulate autophagy to induce ROS (Verdoodt 2012). The elevated ROS led to cJun upregulation and NF-kB activation to increase the DR5 expression (Fu 2010). To validated molecular mechanism in our senescent models, we knocked-down cJun, NF-kB2 and Nrf2 using shRNA. […]
# • Figure 1: CRISPR-based senolytic screen identifies SLC25A23 as a senolytic target • (A). […] Changes in library representation after 10 days doxycycline treatment were determined by Illumina deep-sequencing. • (B). gRNAs prioritized for further analysis were selected by the fold depletion of abundance in S2 and S1 samples compared with that in P2 and P2 samples, using methods as described previously (Evers et al., Nat Biotech, 2016). […] Cell viability was assessed by colony formation assay in the A549 cells stably infected with doxycycline-inducible Cas9 (iCas9) lentiviral vectors and a guide RNAs target SLC25A23 lentiviral vector. […] Cell viability was assessed by colony formation assay in the A549 and MDA-MB-231 cells. […]
# [1] = test system: Hepa1-6 liver cancer cells; format: in vivo, C57BL/6 mice
# Source text: (§1) In order to obtain a synergistic effect, we combed low doses of DR5 agonist antibody either IgG-conatumumab or IgA-conatumumab with salinomycin, as senolytic cocktails. […] To test this senolytic cocktail in vivo, we used both immunodeficient and immunocompetent mouse models. We engrafted A549 cells into immunodeficient nude mice and Hepa1-6 liver cancer cells in syngeneic immunocompetent C57BL/6 mice. After tumors were established, we treated with alisertib to induce senescence and combinations of the two senolytic drugs.
# (§2) Schematic of iCas9-associated senolytic CRISPR screen workflow. A549 cells were infected with a doxycycline-inducible Cas9 (iCas9) lentiviral vector. Next, Brunello lentiviral whole genome-wide gRNA collection virus was introduced to the A549-iCas9 cells. […] Changes in library representation after 10 days doxycycline treatment were determined by Illumina deep-sequencing. • (B). gRNAs prioritized for further analysis were selected by the fold depletion of abundance in S2 and S1 samples compared with that in P2 and P2 samples, using methods as described previously (Evers et al., Nat Biotech, 2016). […] Cell viability was assessed by colony formation assay in the A549 cells stably infected with doxycycline-inducible Cas9 (iCas9) lentiviral vectors and a guide RNAs target SLC25A23 lentiviral vector.
# A549 lung cancer cells = format: in vivo, BALB/c nude mice
# Source text: as §1, §2
# senescent cells = assay: Cell morphology imaging of senescent cells treated with salinomycin
# [2] = test system: lung (A549), breast (MDA-MB-231, MCF-7, T47D) and liver (SK-Hep1) cancer models; assay: Colony formation assay, senescent versus proliferating cancer cells treated with salinomycin
# [3] = test system: alisertib-induced senescent and proliferating A549; assay: Western blot of cell death biomarkers in alisertib-induced senescent and proliferating A549
compound,measurement,setting,value
COc1ccc2c(c1)C1(CC1c1ccc3c(C=Cc4ccc(CN5CC(C)OC(C)C5)cc4)n[nH]c3c1)C(=O)N2 (stereo not shown) [CFI-400945],sensitivity of SLC25A23 suppressed cells to senescence inducers,A549 cells,highly sensitive
"CC(=O)N[C@@H](CS)C(=O)O [N-Acetyl Cysteine (NAC), N-Acetyl Cysteine]",DR5 upregulation in salinomycin treated cells,DR5,could reserve the DR5 upregulation
COc1cc(Nc2ncc3c(n2)-c2ccc(Cl)cc2C(c2c(F)cccc2OC)=NC3)ccc1C(=O)O [alisertib],tumor growth,"[1]; Hepa1-6 in C57BL/6 mice, 25 mg kg-1 alisertib, 1.5 mg kg-1 salinomycin, 0.3 µg per dose MD5-1",limited tumor growth inhibition
same,sensitivity of SLC25A23 suppressed cells to senescence inducers,A549 cells,highly sensitive
same,tumor growth,"A549 lung cancer cells; A549 in nude mice, 25 mg kg-1 alisertib, 1.5 mg kg-1 salinomycin, 5 µg per dose conatumumab (2.5 µg in three-way combination)",limited tumor growth inhibition
COc1cc([C@@H]2c3cc4c(cc3[C@@H](O[C@@H]3O[C@@H]5CO[C@@H](C)O[C@H]5[C@H](O)[C@H]3O)[C@H]3COC(=O)[C@H]23)OCO4)cc(OC)c1O [etoposide],sensitivity of SLC25A23 suppressed cells to senescence inducers,A549 cells,highly sensitive
CC[C@@H](C(=O)[C@@H](C)[C@@H](O)[C@H](C)[C@@H]1O[C@@H]([C@@H](CC)C(=O)O)CC[C@@H]1C)[C@H]1O[C@]2(C=C[C@@H](O)[C@]3(CC[C@@](C)([C@H]4CC[C@](O)(CC)[C@H](C)O4)O3)O2)[C@H](C)C[C@@H]1C [salinomycin],cell death phenotype under the microscope,senescent cells,PANoptosis phenotype
same,tumor growth,"[1]; mouse, in vivo",limited tumor growth inhibition
same,killing of senescent cells versus proliferating cells,[2],preferential killing of senescent cells over proliferating cells
same,Microtubule-associated protein 1A/1B-light chain 3 (LC3),[3],upregulation
same,cJUn,[3],upregulation
same,caspase 3 and 8 (cl-CASP8 and 3),[3],cleavage
same,cleaved Gasdermin-D (cl-GSDMD),[3],upregulation
same,death receptor 5 (DR5),[3],upregulation
same,mixed lineage kinase domain-like protein (MLKL) phosphorylation,[3],increased phosphorylation
same,tumor growth,"A549 lung cancer cells; mouse, in vivo",limited tumor growth inhibition
